# According to patent US20260315454A1, “Use of quinoline-4-carboxylic acid in the preparation of anti-aging product as well as product for protecting liver and promoting liver regeneration” (Guangzhou Riju Trade Development Co., Ltd., priority 2023, published 2026):
# Key:
# [1] = system: 21 month-old C57BL6/J mice; assay: observation of coat status and dermatitis in old mice; format: in vivo; conditions: 5 mg/kg QCA by consecutive gavage for 4 months
# Description: (§1) (7) 21 month-old C57BL6/J mice were randomly divided into control and QCA groups. 0.9% saline was given to the control group (n=7 for male mice, and n=12 for female mice); and 5 mg/kg QCA was given to the QCA group (n=9 for male mice, and n=13 for female mice) by consecutive gavage for 4 months. […] The test mice were placed on the grip strength meter and the tail of the mice was gently pulled, so that the mice grasped the probe forcefully with the forelimbs and hindlimbs. The readings on the grip strength meter were recorded when the mice exerted the maximum force, the arm strength value in mice were obtained by averaging 3 repetitions of the measurements, and the results were shown in FIG. 7B. Blood was taken from the tail vein of mice 4 months after administration by gavage, the proportion of neutrophils (NEU) was measured by routine blood test, and the results were shown in FIG. 7C. […] The mice were examined periodically for the presence of spontaneous tumors, and the number of mice with spontaneous tumors in each group was recorded. […] Concentrations of alanine aminotransferase (ALT), aspartate aminotransferase (AST), and lactate dehydrogenase (LDH) in plasma were measured using a HITACHI 7600 Series (Japan) biochemical detector, and the results were shown in FIG. 7F. […]
# [2] = system: C57BL6/J mice older than 18 months; assay: ⅔ partial hepatectomy model in old mice, plasma ALT, AST and LDH; format: in vivo; conditions: 5 mg/kg QCA intraperitoneally 2 h before and 24 h, 48 h and 72 h after ⅔PHx
# Description: (§2) (8) Establishment of ⅔ partial hepatectomy model in old mice (⅔PHx): C57BL6/J mice older than 18 months were anesthetized with 2% isoflurane by inhalation and underwent a median abdominal incision. The left external and median lobes of the liver were resected separately with 4-0 silk sutures, and the associated vessels and bile ducts were ligated. Mice were injected intraperitoneally with 5 mg/kg QCA or an equal volume of DMSO 2 h before ⅔PHx surgery, and 24 h, 48 h and 72 h after ⅔PHx surgery, respectively. Mice were sacrificed at 6 h, 48 h and 168 h after surgery, respectively, and liver specimens and plasma were collected. The postoperative survival time of mice was recorded and used to plot survival curves. Mice were weighed in advance and livers were weighed after liver extraction so that the liver to body weight ratio could be calculated. Concentrations of alanine aminotransferase (ALT), aspartate aminotransferase (AST), and lactate dehydrogenase (LDH) in plasma were measured using a HITACHI 7600 Series (Japan) biochemical detector. Mouse liver samples collected at specific time points were fixed in 4% paraformaldehyde overnight and then embedded in paraffin. […]
# [3] = system: High-generation MSCs (Old MSCs); assay: CCK8 assay, proliferation of high-generation mesenchymal stem cells; format: cell-based; conditions: P10-15 MSCs; 50 μM, 100 μM, and 200 μM QCA in the medium
# Description: (§3) 4. High-generation MSCs (Old MSCs) at P10-15 were plated in a 96 plate, and 50 μM, 100 μM, and 200 μM of QCA were added to the medium, respectively. The medium without adding QCA was used as a control. Low-generation MSCs (Young MSCs) at P4-7, high-generation MSCs (Old MSCs) at P10-15, as well as high-generation MSCs respectively treated with 50 μM and 200 μM QCA for 72 h, were subjected to Ki67 immunofluorescence staining, and the results were shown in FIG. 4B.
# [4] = system: C57BL6/J mice older than 18 months; assay: ⅔ partial hepatectomy model in old mice, Ki67 immunohistochemical staining of liver; format: in vivo; conditions: 5 mg/kg QCA intraperitoneally 2 h before and 24 h, 48 h and 72 h after ⅔PHx
# Description: as §2
# [5] = system: 21 month-old C57BL6/J mice; assay: grip strength meter, arm strength of old mice; format: in vivo; conditions: 5 mg/kg QCA by consecutive gavage for 4 months
# Description: as §1
# [6] = system: High-generation MSCs (Old MSCs); assay: TUNEL staining of high-generation mesenchymal stem cells; format: cell-based; conditions: P10-15 MSCs; 50 μM and 200 μM QCA for 72 h
# Description: (§4) 5. Low-generation MSCs (Young MSCs) at P4-7, high-generation MSCs (Old MSCs) at P10-15, as well as old MSCs respectively treated with 50 μM and 200 μM QCA for 72 h were subjected to TUNEL staining, and the results were shown in FIG. 5A. Old MSCs with 50 μM QCA were added to the medium all the time (a fresh medium containing QCA was changed every 2-3 days), and the medium without adding QCA was used as a control. The cells were passaged for 3 consecutive generations (passaged when the cells were 80-90% confluent) before being used for β-Gal staining tests, and the results were shown in FIG. 5B.
# W1118 fruit flies = assay: lifespan test for fruit flies (survival curves); format: in vivo; conditions: male W1118; 115 μL of QCA (100 mM, 2 mg QCA/tube) in medium; days 20-30 and 40-50
# Description: (6) The regular medium for rearing fruit flies was added with a preservative and dispensed. After which, 115 μL of QCA (100 mM, equivalent to 2 mg QCA/tube) was added dropwise to the medium, and the same volume of 95% ethanol was added to the control tube. On days 20-30 and 40-50 of fruit flies rearing, the tubes were replaced with QCA-containing rearing tubes for rearing. 3 male W1118 fruit flies and 3 virgin W1118 fruit flies were added to each rearing tube and bred for 3-5 days for a total of 20 tubes. The parental fruit flies were cleared after about 5-6 days, and then adult occurred in about 10 days. A round of picking male fruit flies within 1 day after emergence was performed at a fixed time point each day for a total of 400 fruit flies, in which 20 fruit flies were placed in each tube labeled with the name, date, and number for a total of 20 tubes. Fruit flies were reared at 25° C., 50% humidity and 12 h light/12 h dark, the number of dead fruit flies in the tubes was counted and recorded every day, and the rearing tubes were changed every 3-4 days. The lifespan test for fruit flies in each group needed to be repeated three times independently and the recordings were entered into statistical software for analysis.
# [7] = system: High-generation MSCs (Old MSCs); assay: Ki67 immunofluorescence staining of high-generation mesenchymal stem cells; format: cell-based; conditions: P10-15 MSCs; 50 μM and 200 μM QCA for 72 h
# Description: as §3
# [8] = system: High-generation MSCs (Old MSCs); assay: β-Gal staining of high-generation mesenchymal stem cells; format: cell-based; conditions: 50 μM QCA all the time, passaged for 3 consecutive generations
# Description: as §4
# [9] = system: 21 month-old C57BL6/J mice; assay: plasma ALT, AST and LDH in old mice; format: in vivo; conditions: aged mice, 5 mg/kg QCA by consecutive gavage for 4 months
# Description: as §1
# [10] = system: C57BL6/J mice older than 18 months; assay: ⅔ partial hepatectomy model in old mice, survival; format: in vivo; conditions: 5 mg/kg QCA intraperitoneally 2 h before and 24 h, 48 h and 72 h after ⅔PHx
# Description: as §2
# [11] = system: 21 month-old C57BL6/J mice; assay: chronic inflammation in old mice (proportion of neutrophils by routine blood test, serum TNF-α by ELISA); format: in vivo; conditions: 5 mg/kg QCA by consecutive gavage for 4 months
# Description: as §1
# [12] = system: C57BL6/J mice older than 18 months; assay: ⅔ partial hepatectomy model in old mice, liver to body weight ratio; format: in vivo; conditions: 5 mg/kg QCA intraperitoneally
# Description: (8) Establishment of ⅔ partial hepatectomy model in old mice (⅔PHx): C57BL6/J mice older than 18 months were anesthetized with 2% isoflurane by inhalation and underwent a median abdominal incision. The left external and median lobes of the liver were resected separately with 4-0 silk sutures, and the associated vessels and bile ducts were ligated. Mice were injected intraperitoneally with 5 mg/kg QCA or an equal volume of DMSO 2 h before ⅔PHx surgery, and 24 h, 48 h and 72 h after ⅔PHx surgery, respectively. Mice were sacrificed at 6 h, 48 h and 168 h after surgery, respectively, and liver specimens and plasma were collected. The postoperative survival time of mice was recorded and used to plot survival curves. Mice were weighed in advance and livers were weighed after liver extraction so that the liver to body weight ratio could be calculated. Concentrations of alanine aminotransferase (ALT), aspartate aminotransferase (AST), and lactate dehydrogenase (LDH) in plasma were measured using a HITACHI 7600 Series (Japan) biochemical detector. Mouse liver samples collected at specific time points were fixed in 4% paraformaldehyde overnight and then embedded in paraffin. A 3 μm-thick paraffin section was made for subsequent Ki67 immunohistochemical staining, and the specific procedure was as follows: after subjecting to antigen repairing in EDTA (pH 8.0), the sections were incubated with a primary antibody overnight at 4° C., and then incubated with a secondary antibody at 37° C. for 1 h. Sections were stained with diaminobenzidine and hematoxylin, and then visualized and imaged with an optical microscope.
# fruit flies = assay: tube-climbing test of fruit flies; format: in vivo; conditions: 20 male fruit flies; 17.5 cm marker; performance at 120 s
# [13] = system: 21 month-old C57BL6/J mice; assay: survival curves of old mice; format: in vivo; conditions: 5 mg/kg QCA by gavage; Ctrl (n=19) and QCA (n=26)
# Description: (7) 21 month-old C57BL6/J mice were randomly divided into control and QCA groups. […] The test mice were placed on the grip strength meter and the tail of the mice was gently pulled, so that the mice grasped the probe forcefully with the forelimbs and hindlimbs. The readings on the grip strength meter were recorded when the mice exerted the maximum force, the arm strength value in mice were obtained by averaging 3 repetitions of the measurements, and the results were shown in FIG. 7B. Blood was taken from the tail vein of mice 4 months after administration by gavage, the proportion of neutrophils (NEU) was measured by routine blood test, and the results were shown in FIG. 7C. […] The mice were examined periodically for the presence of spontaneous tumors, and the number of mice with spontaneous tumors in each group was recorded. […] Concentrations of alanine aminotransferase (ALT), aspartate aminotransferase (AST), and lactate dehydrogenase (LDH) in plasma were measured using a HITACHI 7600 Series (Japan) biochemical detector, and the results were shown in FIG. 7F. Survival times were recorded to make the survival curves of the mice in the Ctrl (n=19) and QCA (n=26) groups, and the results were shown in FIG. 7G.
smiles,measurement,setting,value
O=C(O)c1ccnc2ccccc12 [quinoline-4-carboxylic acid],symptoms such as poor coat and dermatitis,[1],can reduce the symptoms such as poor coat and dermatitis in old mice
same,"enzymatic indexes of liver injury (ALT, AST, LDH) after hepatectomy",[2],attenuates the enzymatic indexes of liver injury
same,cell proliferation (CCK8 assay),[3],can promote cell proliferation
same,Ki67-positive cells of liver tissue (immunohistochemical staining),[4],more Ki67-positive cells of liver tissue in the QCA group
same,arm strength (reflecting the muscle strength),[5],enhance the arm strength
same,nuclear DNA breakage (TUNEL staining),[6],reduces nuclear DNA breakage
same,lifespan of fruit flies (survival curves),W1118 fruit flies,prolongs the lifespan of fruit flies
same,cell proliferation (Ki67 immunofluorescence staining),[7],can promote cell proliferation
same,cell aging (β-Gal staining),[8],retards cell aging
same,"enzymatic indexes of liver injury (ALT, AST, LDH)",[9],down-regulate the chronic inflammation and enzymatic indexes of liver injury in aged mice
same,survival rate of mice after hepatectomy,[10],improves the survival rate of mice after hepatectomy
same,"chronic inflammation (neutrophils, TNF-α)",[11],down-regulate the chronic inflammation
same,regenerative liver to body weight ratio at 6 h,[12]; 6 h after hepatectomy,does not significantly increase
same,regenerative liver to body weight ratio at 48 h,[12]; 48 h after hepatectomy,significantly increases
same,regenerative liver to body weight ratio at 168 h,[12]; 168 h after hepatectomy,does not significantly increase
same,exercise capacity (tube-climbing test),fruit flies,enhances their exercise capacity
same,lifespan of the mice (survival curves),[13],prolong the lifespan of the mice
